Reference: PubChem BioAssay (NCI)
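All cell lines were grown in 96-well plates and treated with compound for 48 hours. GI50: concentration for 50% inhibition of growth. TGI denotes the concentration required for complete inhibition of growth.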

What was measured:
Assay in all cases: NCI tumour cell line growth inhibition, 48 h
[1] = test system: CAKI-1 renal
[2] = test system: HT29 colon
[3] = test system: HOP-62 NSCLC
[4] = test system: NCI-H522 lung
[5] = test system: SK-MEL-2 melanoma
[6] = test system: OVCAR-4 ovarian
[7] = test system: SF-268 CNS
[8] = test system: ACHN renal
[9] = test system: CCRF-CEM leukemia
[10] = test system: RPMI-8226 leukemia
[11] = test system: SR leukemia

## COc1cc(C2S/C(=C/c3ccccc3)C(=O)N2c2ccccc2Cl)cc(OC)c1OC (centres undefined)
[1]
  TGI: > 100 µM
[2]
  TGI: 47.5 µM
[3]
  TGI: > 100 µM
[4]
  TGI: 39.2 µM
[5]
  TGI: 39.7 µM
[6]
  TGI: > 100 µM
[7]
  TGI: > 100 µM
[8]
  TGI: > 100 µM

## O=C(O)CN=c1c2ccccc2n(O)c2ccccc12
[1]
  TGI: > 100 µM
[2]
  TGI: > 100 µM
[3]
  TGI: > 100 µM
[4]
  TGI: > 100 µM
[5]
  TGI: > 100 µM
[9]
  TGI: 53.6 µM
[6]
  TGI: > 100 µM
[7]
  TGI: > 100 µM
[10]
  TGI: > 100 µM
[8]
  TGI: > 100 µM

## NC(=S)N/N=C/c1ccc(OC(=O)COc2ccccc2Cl)cn1
[1]
  TGI: > 100 µM
[2]
  TGI: > 100 µM
[3]
  TGI: 67.4 µM
[4]
  TGI: > 77.2 µM
[5]
  TGI: > 100 µM
[9]
  TGI: > 65.8 µM
[6]
  TGI: > 100 µM
[7]
  TGI: > 100 µM
[10]
  TGI: > 100 µM

## COc1cc(Cc2ccc3c(c2C#N)N(C)c2ccccc2S3)cc(OC)c1OC
[2]
  TGI: > 100 µM
[3]
  TGI: > 100 µM
[4]
  TGI: > 100 µM
[5]
  TGI: > 100 µM
[9]
  TGI: > 100 µM
[6]
  TGI: > 100 µM
[7]
  TGI: > 100 µM
[10]
  TGI: > 100 µM
[11]
  TGI: > 100 µM
[8]
  TGI: > 100 µM

## C/C(=N\NC(=S)Nc1ccc(Cl)cc1)c1nc2ncccc2[nH]1
[1]
  TGI: 33.2 µM
[2]
  TGI: 14.7 µM
[3]
  TGI: 18.1 µM
[4]
  TGI: 20.2 µM
[5]
  TGI: 22.5 µM
[6]
  TGI: 41.4 µM
[7]
  TGI: > 100 µM
[10]
  TGI: > 100 µM
[11]
  TGI: > 100 µM
[8]
  TGI: 15.8 µM

## C/C([O-])=C(/c1nc(-c2ccc([N+](=O)[O-])o2)no1)[n+]1cc(C)ccc1C
[1]
  TGI: 28.7 µM
[2]
  TGI: 22.7 µM
[3]
  TGI: 37.3 µM
[4]
  TGI: 14.4 µM
[5]
  TGI: 19.7 µM
[9]
  TGI: > 100 µM
[6]
  TGI: 63.9 µM
[7]
  TGI: 62.3 µM
[10]
  TGI: 55.2 µM

## BrC1=CN2C[n+]3cc(Br)c4ccccc4c3N=C2c2ccccc21
[1]
  TGI: 48.1 µM
[2]
  TGI: 38.6 µM
[3]
  TGI: 16.6 µM
[4]
  TGI: 32.2 µM
[5]
  TGI: 22.3 µM
[9]
  TGI: 34.4 µM
[6]
  TGI: 20 µM
[7]
  TGI: 22.1 µM
[10]
  TGI: 30.5 µM
[11]
  TGI: 9.01 µM
[8]
  TGI: 34.7 µM

## Cc1nc(N(CCO)CCO)c2sc(=S)n(-c3ccccc3)c2n1
[2]
  TGI: > 100 µM
[3]
  TGI: > 100 µM
[4]
  TGI: > 100 µM
[5]
  TGI: > 100 µM
[9]
  TGI: > 100 µM
[7]
  TGI: > 100 µM
[10]
  TGI: > 100 µM
[11]
  TGI: > 100 µM
[8]
  TGI: > 100 µM

## Cc1ncc(CO)c(C=NCCCCCCN=Cc2c(CO)cnc(C)c2O)c1O
[1]
  TGI: > 100 µM
[2]
  TGI: > 100 µM
[3]
  TGI: > 100 µM
[4]
  TGI: > 100 µM
[5]
  TGI: > 100 µM
[9]
  TGI: > 100 µM
[6]
  TGI: > 100 µM
[7]
  TGI: > 100 µM
[10]
  TGI: > 100 µM
[11]
  TGI: > 100 µM
[8]
  TGI: > 100 µM

## COC(=O)C1=C(O)C(C(=O)OC)[C@@]2(O)[C@@H](C(=O)OC)CC[C@@H]1[C@@H]2C(=O)OC (some centres undefined)
[2]
  TGI: > 100 µM
[3]
  TGI: 75.6 µM
[4]
  TGI: 52.4 µM
[5]
  TGI: 49.3 µM
[9]
  TGI: > 100 µM
[7]
  TGI: 75.5 µM
[10]
  TGI: 97.3 µM
[11]
  TGI: 63.9 µM
[8]
  TGI: > 100 µM

## COc1cc2nc(N3CCC[C@@H](NC4=CC(=O)c5ccccc5C4=O)C3)nc(N)c2cc1OC
[1]
  GI50: 2.02 µM
  TGI: 4.12 µM
[2]
  GI50: 1.88 µM
  TGI: 3.82 µM
[3]
  GI50: 2.16 µM
  TGI: 4.26 µM
[4]
  GI50: 1.98 µM
  TGI: 4.31 µM
[9]
  GI50: 1.96 µM
  TGI: 4.56 µM
[6]
  GI50: 1.64 µM
  TGI: 3.35 µM
[7]
  GI50: 1.92 µM
  TGI: 3.81 µM
[10]
  GI50: 2.33 µM
  TGI: 5.58 µM
[11]
  GI50: 0.266 µM
  TGI: 0.892 µM
